Results published in patent US20120171123A1, “USES AND COMPOSITIONS FOR TREATMENT OF RHEUMATOID ARTHRITIS” (priority 2006, published 2012).

Experiments:
Format in all cases: in vivo, human
[1] = system: MTX-naïve adult patients with active, early RA (<3 years); test: Study J: CRP normalization; conditions: for Patient numbers: CRP Abnormal at Baseline, Abnormal at 1 Year / Patient numbers: CRP Normal at Baseline, Abnormal at 1 Year: Abnormal CRP >0.8 mg/dL; for Patient numbers: CRP Abnormal at Baseline, Normal at 1 Year / Patient numbers: CRP Normal at Baseline, Normal at 1 Year: Normal CRP ≦0.8 mg/dL
Protocol: Baseline demographics and clinical characteristics of the patients enrolled in this study are described in Example 7. […] After 1 and 2 years of therapy, the percentages of patients with ACR90 responses, TJC=0, SJC=0, HAQ=0, morning stiffness=0 minutes, and normal CRP were determined. Data are from the intention-to-treat (ITT) population with imputation used for missing values. Results were compared with the percentages of patients who achieved DAS28<2.6 or a Major Clinical Response (MCR).
Radiographic progression was assessed by mean change from baseline in Total Sharp Score (TSS) and stratified into those with (ΔTSS>0.5) and without (Δ≦TSS 0.5). Patients were categorized as either having radiographic progression at 1 year (ΔTSS>0.5) or not (Δ≦TSS 0.5). A logistic regression model was used to identify predictors of radiographic disease progression by testing several baseline characteristics, including age, disease duration, RF status, TJC, SJC, joint erosions, and CRP. For analyses of CRP, patients were categorized as normal (CRP≦0.8 mg/dL) or abnormal (CRP>0.8 mg/dL).

[2] = system: MTX-naïve adult patients with early RA (<3 years); test: Study J: escalation of injectable medicine from eow to weekly dosing; conditions: for ACR20 following dosage escalation, % of all patients in arm / ACR70 following dosage escalation, % of all patients in arm / DAS28 < 2.6 following dosage escalation, % of all patients in arm / ACR60 following dosage escalation, % of all patients in arm: patients with no prior ACR20 response, NRI; for ACR50, % of responders / ACR70, % of responders: patients whose dosages of adalimumab or placebo injections were escalated; for patients who increased injectable medication to weekly: during year 1 (placebo injections in MTX arm)
Protocol: Study J was a 2-year, double-blind, active comparator-controlled, Phase III study. […] In patients receiving ADA+MTX or MTX monotherapy, the 7.5 mg MTX weekly dosage increased to 20 mg over 8 weeks, as tolerated and as needed. Monotherapy patients received either placebo pills (adalimumab arm) or placebo injections (MTX arm). Efficacy outcomes measured included ACR response, DAS28 remission, major clinical response, and radiographic change from baseline.
MTX optimization was required before starting weekly injections (to 20 mg weekly, maximum). Once initiated, weekly dosing of injectable medicine was to be maintained until end of study. Criteria for identification of dosage escalators were a sequence of 4 consecutive injections for which the interval for every two consecutive injections was ≦10 days, and/or that the date of escalation, defined as the second of the 4 injections, had to be on or after Week 16 in Year 1. Three dosage escalator categories were defined, based on best ACR response rate achieved any time prior to escalation: Group A=ACR non-responders (never achieved ACR20 prior to dosage escalation), Group B=Partial responders (achieved ACR20 or ACR50 at least once prior to escalation, but never ACR70), and Group C=ACR70 responders (achieved ACR70 at least once prior to escalation). Data are from the intention-to-treat (ITT) population, with missing data analyzed by non-responder imputation (NRI) for clinical measures and by linear imputation for total Sharp scores (TSS).

[3] = system: patients with long-standing RA who had inadequate responses to MTX; test: Study 1 (adalimumab + MTX vs placebo + MTX, 12-month RCT plus OLE): radiographic progression (TSS, JE, JSN)
Protocol: The study design included a 12 month, double blind, randomized, placebo-controlled trial.
Patients were grouped into three cohorts based on baseline CRP concentrations: low (<1 mg/dL); intermediate (1-4 mg/dL); and high (>4 mg/dL). Analyses were further conducted in two categories of patients according to their change in CRP concentrations at Week 12: those with a ≧20% decrease in CRP from baseline; or those with a <20% decrease in CRP from baseline. The following efficacy and radiographic measures were analyzed at Week 52 in the three baseline CRP categories and in the two Week 12 change in CRP categories: DAS28, ACR 20/50/70, Health assessment questionnaire (HAQ), and Total Sharp score (TSS).
Two readers assessed X-rays performed at baseline (start of RCT), 1 year (end of RCT), and 3 years (post 2 years OLE). Changes from baseline in Total Sharp Score (TSS), Joint Erosions (JE), and Joint Space Narrowing (JSN) were calculated. ACR 20, 50, and 70 response rates, as well as TJC and SJC, were also measured.

[4] = 3 years, initially randomized to 40 mg eow

| Molecule | Normal CRP (≦0.8 mg/dL) ([1]; 1 year) [% patients] | Normal CRP (≦0.8 mg/dL) ([1]; 2 years) [% patients] | Patient numbers: CRP Abnormal at Baseline, Abnormal at 1 Year [1] | Patient numbers: CRP Normal at Baseline, Abnormal at 1 Year [1] | Patient numbers: CRP Abnormal at Baseline, Normal at 1 Year [1] | Patient numbers: CRP Normal at Baseline, Normal at 1 Year [1] | ACR20 following dosage escalation, % of all patients in arm ([2]; 1 year) [%] | ACR70 following dosage escalation, % of all patients in arm ([2]; 1 year) | DAS28 < 2.6 following dosage escalation, % of all patients in arm ([2]; 1 year) [%] | No radiographic progression, % of patients ([2]; 2 years, eow dosing) [%] | ACR20 following dosage escalation, % of all patients in arm ([2]; 2 years) [%] | ACR70 following dosage escalation, % of all patients in arm ([2]; 2 years) [%] | DAS28 < 2.6 following dosage escalation, % of all patients in arm ([2]; 2 years) [%] | No radiographic progression, % of patients ([2]; 2 years, weekly dosing) [%] | ACR50, % of responders ([2]; Year 1) [%] | ACR70, % of responders ([2]; Year 1) [%] | ACR50, % of responders ([2]; Year 2) [%] | ACR70, % of responders ([2]; Year 2) [%] | patients who increased injectable medication to weekly [2] [%] | also measured |
| --- | --- | --- | --- | --- | --- | --- | --- | --- | --- | --- | --- | --- | --- | --- | --- | --- | --- | --- | --- | --- |
| CN(Cc1cnc2nc(N)nc(N)c2n1)c1ccc(C(=O)N[C@@H](CCC(=O)O)C(=O)O)cc1 [mtx alone, methotrexate] | 35 | 29 | 75 | 7 | 84 | 21 | 3.5 | 0.8% | 0.0 | 36.6 | 3.6 | 1.2 | 0.8 | 21.2 | 17 | 8 | 21 | 12 | 20 | patients with abnormal baseline CRP that became normal ([1]; 1 year, listed as MTX Alone): 53% (n = 159); patients with abnormal baseline CRP that became normal ([1]; 1 year, listed as MTX alone): 53%; Erosions mean change ([3]; week 52, baseline CRP 1-4 mg/dL): 1.7; TSS mean change ([3]; week 52, baseline CRP 1-4 mg/dL, listed as MTX): 3.0; TSS mean change ([3]; week 52, baseline CRP 1-4 mg/dL, listed as Mtx): 3.25 (n = 54); Erosions mean change ([3]; week 52, baseline CRP <1 mg/dL): 1.5; TSS mean change ([3]; week 52, baseline CRP <1 mg/dL, listed as MTX): 2.1; TSS mean change ([3]; week 52, baseline CRP <1 mg/dL, listed as Mtx): 1.8 (n = 71); Erosions mean change ([3]; week 52, baseline CRP >4 mg/dL): 2.1; TSS mean change ([3]; week 52, baseline CRP >4 mg/dL, listed as MTX): 4.5; TSS mean change ([3]; week 52, baseline CRP >4 mg/dL, listed as Mtx): 4.23 (n = 15) |
| adalimumab: human anti-TNF mAb (HUMIRA, Abbott Laboratories), described in U.S. Pat. No. 6,090,382 as D2E7 | 34 | 34 | 72 | 4 | 78 | 33 | 1.8 | 0 (0) % | 0.4 | 48.8 | 2.6 | 0.4 | 0.4 | 31.9 | 17 | 6 | 16 | 10 | 25 | patients with abnormal baseline CRP that became normal ([1]; 1 year, listed as Adalimumab Alone): 52% (n = 150); ACR60 following dosage escalation, % of all patients in arm ([2]; 1 year): 1.6%; ACR60 following dosage escalation, % of all patients in arm ([2]; 2 years): 0.4%; patients with radiographic improvement (change <−0.5 units), total sharp score ([3]; 3 years): 28%; patients with radiographic improvement, joint erosion score ([3]; 3 years): 29%; patients with radiographic improvement, joint space narrowing score ([3]; 3 years): 20%; patients with no radiographic progression, joint erosion score [3, 4]: 71%; patients with no radiographic progression, joint space narrowing score [3, 4]: 73%; patients with no radiographic progression, total sharp score [3, 4]: 62% |
